Results from patent US20250129070A1, “BIFUNCTIONAL ANDROGEN RECEPTOR COMPOUNDS” (priority 2023, published 2025).

Key:
Format in all cases: cell-based
AR / CBP ternary complex = assay: Ternary complex formation assay (sandwich ELISA, AR capture / CBP detection) in VCaP cell lysates; details: 1.5 hours treatment, sandwich ELISA (AR capture, CBP or p300 detection)
Method in brief: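 Anti-AR (AR 441)-coated plates capture AR from lysates of VCaP cells grown ≥3 days at 50K/well in 5% charcoal-stripped FBS, dosed with bifunctional for 1.5 h and lysed 30 min at 4 °C. Co-captured CBP/p300 is probed with rabbit mAb and HRP anti-rabbit, then QuantaRed fluorescence (570/585) is read at 0, 5 and 15 min.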

VCaP cells = assay: VCaP growth inhibition assay; details: 30 pM R1881, 9 days, CTG
Method in brief: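 Growth read by CTG luminescence after 9-day exposure to compound (final 100 nM–10 fM, 1:5 steps) plus 30 pM R1881, in phenol red-free DMEM with 5% CSS. Cells pre-incubated 72 h before dosing; IC50 by nonlinear 4-parameter regression.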

HEK-293 cells = assay: HEK-293 growth inhibition assay; details: 3 days, CTG
Method: Cluster plates are returned to the incubator (37*C/5% CO2) for 24 hours prior to treatment. […] Cluster plates are returned to the incubator for 3 days.
After the 3-day treatment period, 100 uL media was removed from each well by aspiration and 100 uL room temperature CTG reagent (Promega Cat #G7573) is added back to each well. The cluster plates are placed on a shaker and incubated at room temperature for 20 minutes. Following this shaking/incubation, cluster plates are read on a luminometer (BMG ClarioStar). IC50 values are obtained by graphing the RLU data vs. compound concentration with nonlinear regression 4-parameter logistic curves (GraphPad Prism).

SMILES	EC50 (AR / CBP ternary complex) [nM]	IC50 (VCaP cells) [nM]	IC50 (HEK-293 cells) [nM]
CC(=O)N1CCc2c(c(-c3cccc4cc(-c5ccc(C(=O)NCc6ncc(C(=O)NC7C(C)(C)C(Oc8ccc(C#N)c(Cl)c8)C7(C)C)cn6)nc5)ncc34)nn2C2CCOCC2)C1 (stereo not drawn) [Compound 79, 2-[[[5-[8-(5-acetyl-1-tetrahydropyran-4-yl-6,7-dihydro-4H-pyrazolo[4,3-c]pyridin-3-yl)-3-isoquinolyl]pyridine-2-carbonyl]amino]methyl]-N-[3-(3-chloro-4-cyano-phenoxy)-2,2,4,4-tetramethyl-cyclobutyl]pyrimidine-5-carboxamide]	< 1	0.1 to 1	> 10000
CC(=O)N1CCc2c(c(N3CCCc4cc(-c5cnn(C)c5)c(C(F)F)cc43)nn2C2CN(C(=O)CN3CCN(c4ncc(C(=O)NC5C(C)(C)C(Oc6ccc(C#N)c(Cl)c6)C5(C)C)cn4)CC3)C2)C1 (stereo not drawn) [Compound 65, 2-[4-[2-[3-[5-acetyl-3-[7-(difluoromethyl)-6-(1-methylpyrazol-4-yl)-3,4-dihydro-2H-quinolin-1-yl]-6,7-dihydro-4H-pyrazolo[4,3-c]pyridin-1-yl]azetidin-1-yl]-2-oxo-ethyl]piperazin-1-yl]-N-[3-(3-chloro-4-cyano-phenoxy)-2,2,4,4-tetramethyl-cyclobutyl]pyrimidine-5-carboxamide]	< 1	≤ 0.1	> 10000
CC(=O)N1CCc2c(c(N3CCCc4cc(-c5cnn(C)c5)c(C(F)F)cc43)nn2C2CCN(C[C@@H]3CCN(c4ncc(C(=O)NC5C(C)(C)C(Oc6ccc(C#N)c(Cl)c6)C5(C)C)cn4)C[C@@H]3C)CC2)C1 (stereo partly drawn) [Compound 275, 2-[(3R,4R)-4-[[4-[5-acetyl-3-[7-(difluoromethyl)-6-(1-methylpyrazol-4-yl)-3,4-dihydro-2H-quinolin-1-yl]-6,7-dihydro-4H-pyrazolo[4,3-c]pyridin-1-yl]-1-piperidyl]methyl]-3-methyl-1-piperidyl]-N-[3-(3-chloro-4-cyano-phenoxy)-2,2,4,4-tetramethyl-cyclobutyl]pyrimidine-5-carboxamide]	< 1	≤ 0.1	> 1000
C[C@@H]1CC(=O)Nc2cccc(-c3ccc4c(c3)c(C3CC3)nn4CCCN3CCN(c4ncc(C(=O)NC5C(C)(C)C(Oc6ccc(C#N)c(Cl)c6)C5(C)C)cn4)CC3)c2N1 (stereo partly drawn) [Compound 59, N-[3-(3-chloro-4-cyano-phenoxy)-2,2,4,4-tetramethyl-cyclobutyl]-2-[4-[3-[3-cyclopropyl-5-[(4R)-4-methyl-2-oxo-1,3,4,5-tetrahydro-1,5-benzodiazepin-6-yl]indazol-1-yl]propyl]piperazin-1-yl]pyrimidine-5-carboxamide]	> 100	> 100	> 10000
COc1cc(OC2C(C)(C)C(NC(=O)c3ccc(N4CC(C)C(CN5CCC(n6nc(N7CCCc8cc(-c9cnn(C)c9)c(C(F)F)cc87)c7c6CCN(C(C)=O)C7)CC5)C(C)C4)cc3)C2(C)C)ccc1C#N (stereo not drawn) [Compound 327, 4-[4-[[4-[5-acetyl-3-[7-(difluoromethyl)-6-(1-methylpyrazol-4-yl)-3,4-dihydro-2H-quinolin-1-yl]-6,7-dihydro-4H-pyrazolo[4,3-c]pyridin-1-yl]-1-piperidyl]methyl]-3,5-dimethyl-1-piperidyl]-N-[3-(4-cyano-3-methoxy-phenoxy)-2,2,4,4-tetramethyl-cyclobutyl]benzamide]	< 1	0.1 to 1	> 1000
CNC(=O)N1CCc2c(c(N3CCCc4cc(-c5cnn(C)c5)c(C(F)F)cc43)nn2C2CCN(C(=O)CN3CCN(c4ccc(C(=O)NC5C(C)(C)C(Oc6ccc(C#N)c(Cl)c6)C5(C)C)cn4)CC3)CC2)C1 (stereo not drawn) [Compound 42, 1-[1-[2-[4-[5-[[3-(3-chloro-4-cyano-phenoxy)-2,2,4,4-tetramethyl-cyclobutyl]carbamoyl]-2-pyridyl]piperazin-1-yl]acetyl]-4-piperidyl]-3-[7-(difluoromethyl)-6-(1-methylpyrazol-4-yl)-3,4-dihydro-2H-quinolin-1-yl]-N-methyl-6,7-dihydro-4H-pyrazolo[4,3-c] pyridine-5-carboxamide]	< 1	≤ 0.1	> 10000
CC(=O)N1CCc2c(c(N3CCCc4cc(-c5cnn(C)c5)c(C(F)F)cc43)nn2C2CCN(CC3CN(c4ncc(C(=O)NC5C(C)(C)C(Oc6ccc(C#N)c(Cl)c6)C5(C)C)cn4)C3)CC2)C1 (stereo not drawn) [Compound 20, 2-[3-[[4-[5-acetyl-3-[7-(difluoromethyl)-6-(1-methylpyrazol-4-yl)-3,4-dihydro-2H-quinolin-1-yl]-6,7-dihydro-4H-pyrazolo[4,3-c]pyridin-1-yl]-1-piperidyl]methyl]azetidin-1-yl]-N-[3-(3-chloro-4-cyano-phenoxy)-2,2,4,4-tetramethyl-cyclobutyl]pyrimidine-5-carboxamide]	< 1	≤ 0.1	> 10000
CC(=O)N1CCc2c(c(N3CCCc4cc(-c5cnn(C)c5)c(C(F)F)cc43)nn2C2CCN(C(=O)CN3CCN(c4ncc(C(=O)NC5C(C)(C)C(Oc6ccc(C#N)c(Cl)c6)C5(C)C)cn4)CC3)CC2)C1 (stereo not drawn) [Compound 96, 2-[4-[2-[4-[5-acetyl-3-[7-(difluoromethyl)-6-(1-methylpyrazol-4-yl)-3,4-dihydro-2H-quinolin-1-yl]-6,7-dihydro-4H-pyrazolo[4,3-c]pyridin-1-yl]-1-piperidyl]-2-oxo-ethyl]piperazin-1-yl]-N-[3-(3-chloro-4-cyano-phenoxy)-2,2,4,4-tetramethyl-cyclobutyl]pyrimidine-5-carboxamide]	< 1	≤ 0.1	> 10000
CNC(=O)N1CCc2c(c(N3CCCc4cc(-c5cnn(C)c5)c(C(F)F)cc43)nn2C2CCN(C(=O)COCCOCC3CCN(c4ncc(C(=O)NC5C(C)(C)C(Oc6ccc(C#N)c(Cl)c6)C5(C)C)cn4)CC3)CC2)C1 (stereo not drawn) [Compound 104, 1-[1-[2-[2-[[1-[5-[[3-(3-chloro-4-cyano-phenoxy)-2,2,4,4-tetramethyl-cyclobutyl]carbamoyl]pyrimidin-2-yl]-4-piperidyl]methoxy]ethoxy]acetyl]-4-piperidyl]-3-[7-(difluoromethyl)-6-(1-methylpyrazol-4-yl)-3,4-dihydro-2H-quinolin-1-yl]-N-methyl-6,7-dihydro-4H-pyrazolo[4,3-c]pyridine-5-carboxamide]	< 1	0.1 to 1	> 10000
CNC(=O)N1CCc2c(c(N3CCCc4cc(-c5cnn(C)c5)c(C(F)F)cc43)nn2C2CCN(C(=O)COCCOCCCN3CCN(c4ncc(C(=O)NC5C(C)(C)C(Oc6ccc(C#N)c(Cl)c6)C5(C)C)cn4)CC3)CC2)C1 (stereo not drawn) [Compound 102, 1-[1-[2-[2-[3-[4-[5-[[3-(3-chloro-4-cyano-phenoxy)-2,2,4,4-tetramethyl-cyclobutyl]carbamoyl]pyrimidin-2-yl]piperazin-1-yl]propoxy]ethoxy]acetyl]-4-piperidyl]-3-[7-(difluoromethyl)-6-(1-methylpyrazol-4-yl)-3,4-dihydro-2H-quinolin-1-yl]-N-methyl-6,7-dihydro-4H-pyrazolo[4,3-c]pyridine-5-carboxamide]	< 1	0.1 to 1	> 10000
CNC(=O)N1CCc2c(c(N3CCCc4cc(-c5cnn(C)c5)c(C(F)F)cc43)nn2C2CCN(C(=O)CN3CCN(c4ccc(C(=O)NC5C(C)(C)C(Oc6ccc(C#N)c(Cl)c6)C5(C)C)cc4)CC3)CC2)C1 (stereo not drawn) [Compound 41, 1-[1-[2-[4-[4-[[3-(3-chloro-4-cyano-phenoxy)-2,2,4,4-tetramethyl-cyclobutyl]carbamoyl]phenyl]piperazin-1-yl]acetyl]-4-piperidyl]-3-[7-(difluoromethyl)-6-(1-methylpyrazol-4-yl)-3,4-dihydro-2H-quinolin-1-yl]-N-methyl-6,7-dihydro-4H-pyrazolo[4,3-c]pyridine-5-carboxamide]	< 1	0.1 to 1	> 10000
CNC(=O)N1CCc2c(c(N3CCCc4cc(-c5cnn(C)c5)c(C(F)F)cc43)nn2C2CCN(CCc3ncc(C(=O)NC4C(C)(C)C(Oc5ccc(C#N)c(Cl)c5)C4(C)C)cn3)CC2)C1 (stereo not drawn) [Compound 90, 1-[1-[2-[5-[[3-(3-chloro-4-cyano-phenoxy)-2,2,4,4-tetramethyl-cyclobutyl]carbamoyl]pyrimidin-2-yl]ethyl]-4-piperidyl]-3-[7-(difluoromethyl)-6-(1-methylpyrazol-4-yl)-3,4-dihydro-2H-quinolin-1-yl]-N-methyl-6,7-dihydro-4H-pyrazolo[4,3-c]pyridine-5-carboxamide]	< 1	> 100	2160
CNC(=O)N1CCc2c(c(N3CCCc4cc(-c5cnn(C)c5)c(C(F)F)cc43)nn2C2CCN(C(=O)COCCCOCC3CCN(c4ncc(C(=O)NC5C(C)(C)C(Oc6ccc(C#N)c(Cl)c6)C5(C)C)cn4)CC3)CC2)C1 (stereo not drawn) [Compound 97, 1-[1-[2-[3-[[1-[5-[[3-(3-chloro-4-cyano-phenoxy)-2,2,4,4-tetramethyl-cyclobutyl]carbamoyl]pyrimidin-2-yl]-4-piperidyl]methoxy]propoxy]acetyl]-4-piperidyl]-3-[7-(difluoromethyl)-6-(1-methylpyrazol-4-yl)-3,4-dihydro-2H-quinolin-1-yl]-N-methyl-6,7-dihydro-4H-pyrazolo[4,3-c]pyridine-5-carboxamide]	< 1	≤ 0.1	> 10000
